Columns and labels:
[1] = system: patients with PD-related Dementia (PDD); conditions: cited from earlier work
[2] = system: early-mild Parkinson's Disease; conditions: after eight weeks (end of study); cited from earlier work
normal rats = conditions: safinamide per se; cited from earlier work
PD patients = conditions: after 3 month treatment; cited from earlier work
[3] = system: non demented patients with early PD; assay: UPDRS motor scores in six month double blind clinical trial; type: in vivo, human; conditions: safinamide associated to a dopamine agonist, compared to the group treated with the DA alone
Description: A double blind Phase III study, placebo controlled, parallel-group, randomized, multinational was conducted comparing 2 oral doses of Safinamide versus placebo. The placebo group was constituted by patients treated with a stable dose of a dopamine agonist. The dopamine agonist could have been any of the ones used in clinical practice, according to clinical procedures in the different countries. 269 patients (˜90 per arm), were enrolled and treated for six months. Primary efficacy variable was UPDRS III. All the randomized patients were tested for cognitive impairment with Cogtest at Screening, Baseline, week 12 and week 24 (or early discontinuation).

animal models = conditions: cited from earlier work
glutamate receptors = conditions: cited from earlier work
glutamate release = conditions: in condition of pathological glutamate overflow; cited from earlier work
[4] = system: non demented patients with early PD; assay: Cogtest cognitive battery in double blind Phase III study, safinamide added to a dopamine agonist; type: in vivo, human
Text: Cogtest® (Computerized Cognitive Test Battery for Clinical Trials) is designed to provide with the highest quality computerised cognitive tests for use in clinical trials. All cognitive tests in the Cogtest® battery have been developed by academic neuropsychologists and clinical trials specialists. This ensures that the most recent developments in cognitive neuroscience, including neurophysiological, functioning neuroimaging and pharmacogenic evidence are incorporated into the Cogtest® library of procedures and into pharmaceutical clinical trials.
The Cogtest PD battery has been prepared, based on a review of the available tests in the Cogtest library and selection of those tests that would most usefully comprise a battery suitable for Parkinson's Disease. However the same tasks are used in other pathological conditions for testing the two main domains of cognition, reaction time and power.
The battery takes from 20-30 minutes to administer, and is applicable across different cultures and countries. The following tests were included in the battery:
The Auditory Number Sequencing task is a test of working memory and executive function. The participant will be presented with clusters of numbers (e.g. 936) of increasing length (from 2 digits to a maximum of 8 digits). They will be asked to tell the tester the numbers in order, from lowest to highest. […]
This test is similar to the paper-and-pencil ‘cancellation’ tests or the cross-out’ subtest of the WAIS-III, where subjects are required to crossout target stimuli embedded among distracters. […] The variables measured are: Total Experiment Time (from the end of the ‘Get ready’ screen to the end of the last response, in msec), Total Correct responses, Total Perseverative Errors (erroneous pressing of the shape that was the target of the last set, but is not for this set), Strategic efficiency variable (the cumulative distance of territory transversed, i.e., between the location of correct presses on screen for each set) according to literature (Weintraub, S., & Mesulam, M. M. (1987). Archives of Neurology 44 621-625). […]

cholinesterase = conditions: cited from earlier work
MAO-A = molecular target: T1, MAO-A (Homo sapiens, UniProt P21397); conditions: cited from earlier work
T1 sequence (P21397 1-527): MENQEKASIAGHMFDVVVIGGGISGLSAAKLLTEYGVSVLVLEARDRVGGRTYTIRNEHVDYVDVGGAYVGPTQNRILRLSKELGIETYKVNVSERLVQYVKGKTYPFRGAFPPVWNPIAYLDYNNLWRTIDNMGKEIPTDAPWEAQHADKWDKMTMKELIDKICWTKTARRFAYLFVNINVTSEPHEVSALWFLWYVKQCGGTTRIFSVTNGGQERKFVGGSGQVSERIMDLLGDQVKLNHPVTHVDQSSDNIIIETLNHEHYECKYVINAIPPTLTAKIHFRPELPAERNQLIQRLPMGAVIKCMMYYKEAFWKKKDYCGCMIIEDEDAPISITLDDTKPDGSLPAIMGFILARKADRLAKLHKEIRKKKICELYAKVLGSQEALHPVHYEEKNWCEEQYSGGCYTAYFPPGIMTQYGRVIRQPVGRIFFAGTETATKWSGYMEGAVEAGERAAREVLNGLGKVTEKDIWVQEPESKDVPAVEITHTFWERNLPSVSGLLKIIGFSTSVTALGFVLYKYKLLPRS

MAO-B = molecular target: T2, MAO-B (Homo sapiens, UniProt P27338); conditions: cited from earlier work
T2 sequence (P27338 1-520): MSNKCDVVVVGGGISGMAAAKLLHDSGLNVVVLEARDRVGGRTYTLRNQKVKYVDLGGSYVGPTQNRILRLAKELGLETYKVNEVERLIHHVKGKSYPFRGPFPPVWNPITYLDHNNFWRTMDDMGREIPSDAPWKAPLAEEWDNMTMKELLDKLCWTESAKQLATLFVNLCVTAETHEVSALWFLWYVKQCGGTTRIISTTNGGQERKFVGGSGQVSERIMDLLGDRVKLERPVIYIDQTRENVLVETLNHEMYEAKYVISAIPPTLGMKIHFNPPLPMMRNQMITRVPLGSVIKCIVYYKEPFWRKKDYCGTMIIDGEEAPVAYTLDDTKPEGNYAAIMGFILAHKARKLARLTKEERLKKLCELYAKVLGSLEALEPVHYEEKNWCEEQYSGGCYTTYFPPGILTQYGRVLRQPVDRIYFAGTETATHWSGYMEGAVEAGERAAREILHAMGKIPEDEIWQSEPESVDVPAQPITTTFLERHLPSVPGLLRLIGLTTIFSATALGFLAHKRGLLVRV

[5] = system: early and moderate-to-advanced PD patients; conditions: 1 mg dose once daily; cited from earlier work
[6] = literature reports; cited from earlier work
[7] = in vivo; cited from earlier work
mild PD patients = conditions: in comparison to levodopa; cited from earlier work

CCN(C)C(=O)Oc1cccc([C@H](C)N(C)C)c1 [rivastigmine]
subjective worsening of tremor reported ([1]; in vivo): 1.7%
patients dropped out due to adverse events ([1]; most commonly due to nausea): 17%
response on primary (ADAS-Cog, Clinical Global Impression of Change) and all secondary outcome measures ([1]; versus placebo, differences were moderate): responded better

CCCN1C[C@H](CSC)C[C@@H]2c3cccc4[nH]cc(c34)C[C@H]21 [pergolide]
cognitive test scores [2]: without showing amelioration

C[C@H](NCc1ccc(OCc2cccc(F)c2)cc1)C(N)=O [safinamide, (S)-(+)-2-[4-(3-fluorobenzyloxy)-benzylamino]-propanamide]
cognition in the rat passive avoidance test (normal rats): does not ameliorate cognition
UPDRS scores (PD patients): significantly ameliorated
UPDRS scores (motor symptoms) [3]: significantly ameliorate
long term neuroprotective effects (animal models): demonstrated
affinity for any of the glutamate receptors (glutamate receptors): no affinity
glutamate release inhibition (glutamate release): glutamate release inhibitor
several cognitive variables (Cogtest), change from baseline ([4]; both groups, low and high dose of safinamide, with a stable dose of a DA, three and six months evaluation times, most marked for executive function): significant improvement from baseline
Strategic Target Detection test, observed score (Z-score) ([4]; both treated groups (low and high dose of safinamide), from baseline to both three and six months): significant improvement
cognition compared with DA alone (control group) and with pretreatment ([4]; safinamide associated to a dopamine agonist, check at three and six months after start of treatment): ameliorate cognitive worsening observed in controls and/or improve cognition as compared to pretreatment
cholinesterase inhibition (cholinesterase): not cholinesterase inhibitors
activity on MAO-A (MAO-A): devoid of activity
MAO-B inhibition (MAO-B): selective MAO-B inhibitor

C#CCN[C@@H]1CCc2ccccc21 [rasagiline]
occurrence of cognitive and behavioural adverse events [5]: without significantly increasing
symptoms of PD, including motor fluctuations [5]: improved

N[C@@H](Cc1ccc(O)c(O)c1)C(=O)O [levodopa]
effect on cognition [6]: no effect on cognition, or even impairment

CN1CCc2cccc3c2[C@H]1Cc1ccc(O)c(O)c1-3 [apomorphine]
reaction times in visual-spatial working memory (WM) [7]: negative effect

CCCN[C@H]1CCc2nc(N)sc2C1 [pramipexole]
short term verbal memory and attentional-executive functions (mild PD patients): impaired
verbal fluency (mild PD patients): slightly but significantly worsened
